# Activity calls are given as the source filed them. On the calls: in the data inactive means no Kd found up to 30 µM.
# Legend:
# [1] = target: Dual specificity testis-specific protein kinase 2 (Homo sapiens, UniProt Q96S53)
# [2] = target: Serine/threonine-protein kinase N3 (Homo sapiens, UniProt Q6P5Z2)
# [3] = target: Choline-phosphate cytidylyltransferase A (Homo sapiens, UniProt P49585)
# [4] = target: T1, Isoleucine--tRNA ligase, mitochondrial (Homo sapiens, UniProt Q9NSE4)
# T1 sequence (Q9NSE4 whole entry): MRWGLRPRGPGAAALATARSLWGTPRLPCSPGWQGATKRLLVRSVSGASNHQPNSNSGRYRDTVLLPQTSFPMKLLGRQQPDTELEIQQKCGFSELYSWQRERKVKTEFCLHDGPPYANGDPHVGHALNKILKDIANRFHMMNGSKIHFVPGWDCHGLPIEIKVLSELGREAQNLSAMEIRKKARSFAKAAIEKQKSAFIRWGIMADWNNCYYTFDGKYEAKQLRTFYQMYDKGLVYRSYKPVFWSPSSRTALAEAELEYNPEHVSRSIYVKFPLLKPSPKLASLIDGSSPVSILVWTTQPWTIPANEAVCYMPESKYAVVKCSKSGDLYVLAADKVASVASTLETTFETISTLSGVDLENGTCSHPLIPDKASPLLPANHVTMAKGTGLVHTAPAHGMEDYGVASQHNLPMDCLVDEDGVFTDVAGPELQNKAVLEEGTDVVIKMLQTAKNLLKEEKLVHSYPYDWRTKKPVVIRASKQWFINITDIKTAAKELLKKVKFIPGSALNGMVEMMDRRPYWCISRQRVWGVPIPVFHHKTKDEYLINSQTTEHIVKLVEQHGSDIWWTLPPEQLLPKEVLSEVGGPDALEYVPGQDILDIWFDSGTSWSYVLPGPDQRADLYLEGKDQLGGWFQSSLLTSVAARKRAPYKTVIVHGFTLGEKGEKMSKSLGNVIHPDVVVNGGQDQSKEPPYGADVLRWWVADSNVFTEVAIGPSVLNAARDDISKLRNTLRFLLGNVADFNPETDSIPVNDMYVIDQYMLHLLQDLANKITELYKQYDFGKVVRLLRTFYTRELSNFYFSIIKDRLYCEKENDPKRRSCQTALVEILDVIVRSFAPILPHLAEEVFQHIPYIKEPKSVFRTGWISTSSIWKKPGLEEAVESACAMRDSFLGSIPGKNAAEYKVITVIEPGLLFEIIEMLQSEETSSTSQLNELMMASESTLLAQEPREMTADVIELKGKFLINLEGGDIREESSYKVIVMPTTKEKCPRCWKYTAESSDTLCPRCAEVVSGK
# [5] = target: Serine/threonine-protein kinase ATR (Homo sapiens, UniProt Q13535)
# [6] = target: Dual specificity protein kinase CLK3 (Homo sapiens, UniProt P49761); type: subcellular, K-562, COLO 205, SK-N-BE(2) and MV-4-11, Cell lysate; conditions: read-out: Kd apparent
# [7] = target: T2, Long-chain-fatty-acid--CoA ligase 5 (Homo sapiens, UniProt Q9ULC5)
# T2 sequence (Q9ULC5 whole entry): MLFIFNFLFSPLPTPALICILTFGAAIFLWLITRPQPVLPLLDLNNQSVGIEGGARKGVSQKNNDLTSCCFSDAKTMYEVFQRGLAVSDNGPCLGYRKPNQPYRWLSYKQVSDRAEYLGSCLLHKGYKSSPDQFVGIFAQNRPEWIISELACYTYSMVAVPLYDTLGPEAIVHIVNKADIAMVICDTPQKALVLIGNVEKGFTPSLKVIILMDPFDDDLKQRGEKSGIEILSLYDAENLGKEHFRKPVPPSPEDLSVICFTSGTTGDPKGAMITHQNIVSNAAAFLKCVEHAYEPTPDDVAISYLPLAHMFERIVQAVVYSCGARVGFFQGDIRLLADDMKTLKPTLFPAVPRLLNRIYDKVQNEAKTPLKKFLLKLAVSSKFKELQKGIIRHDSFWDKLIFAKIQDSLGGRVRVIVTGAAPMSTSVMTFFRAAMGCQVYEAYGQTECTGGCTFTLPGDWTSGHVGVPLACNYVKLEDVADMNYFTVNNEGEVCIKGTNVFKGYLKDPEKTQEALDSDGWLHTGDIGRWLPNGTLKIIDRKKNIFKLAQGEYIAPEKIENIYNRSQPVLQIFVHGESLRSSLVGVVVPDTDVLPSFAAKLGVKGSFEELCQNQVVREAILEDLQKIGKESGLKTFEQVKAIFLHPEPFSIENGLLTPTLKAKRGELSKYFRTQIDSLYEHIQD
# [8] = target: Serine/threonine-protein kinase PLK1 (Homo sapiens, UniProt P53350)
# [9] = target: Uncharacterized aarF domain-containing protein kinase 5 (Homo sapiens, UniProt Q3MIX3)
# Sequence of Uncharacterized aarF domain-containing protein kinase 5 (Q3MIX3 whole entry, the tested form may be a part): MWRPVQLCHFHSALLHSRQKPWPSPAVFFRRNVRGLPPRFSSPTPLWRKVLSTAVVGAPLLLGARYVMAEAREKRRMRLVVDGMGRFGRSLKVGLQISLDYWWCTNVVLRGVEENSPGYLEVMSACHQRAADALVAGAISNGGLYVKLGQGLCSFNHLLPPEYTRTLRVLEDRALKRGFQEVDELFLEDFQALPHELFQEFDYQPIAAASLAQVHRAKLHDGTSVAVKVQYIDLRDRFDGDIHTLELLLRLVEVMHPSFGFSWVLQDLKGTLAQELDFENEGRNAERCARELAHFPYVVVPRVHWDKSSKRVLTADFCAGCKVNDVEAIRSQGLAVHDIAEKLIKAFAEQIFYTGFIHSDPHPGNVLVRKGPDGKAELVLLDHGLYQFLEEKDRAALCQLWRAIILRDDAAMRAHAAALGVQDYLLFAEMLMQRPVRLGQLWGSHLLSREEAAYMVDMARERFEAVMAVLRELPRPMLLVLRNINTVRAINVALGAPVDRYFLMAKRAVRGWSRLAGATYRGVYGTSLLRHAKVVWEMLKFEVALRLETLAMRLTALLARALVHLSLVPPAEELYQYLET
# Sequence of Dual specificity testis-specific protein kinase 2 (Q96S53 whole entry): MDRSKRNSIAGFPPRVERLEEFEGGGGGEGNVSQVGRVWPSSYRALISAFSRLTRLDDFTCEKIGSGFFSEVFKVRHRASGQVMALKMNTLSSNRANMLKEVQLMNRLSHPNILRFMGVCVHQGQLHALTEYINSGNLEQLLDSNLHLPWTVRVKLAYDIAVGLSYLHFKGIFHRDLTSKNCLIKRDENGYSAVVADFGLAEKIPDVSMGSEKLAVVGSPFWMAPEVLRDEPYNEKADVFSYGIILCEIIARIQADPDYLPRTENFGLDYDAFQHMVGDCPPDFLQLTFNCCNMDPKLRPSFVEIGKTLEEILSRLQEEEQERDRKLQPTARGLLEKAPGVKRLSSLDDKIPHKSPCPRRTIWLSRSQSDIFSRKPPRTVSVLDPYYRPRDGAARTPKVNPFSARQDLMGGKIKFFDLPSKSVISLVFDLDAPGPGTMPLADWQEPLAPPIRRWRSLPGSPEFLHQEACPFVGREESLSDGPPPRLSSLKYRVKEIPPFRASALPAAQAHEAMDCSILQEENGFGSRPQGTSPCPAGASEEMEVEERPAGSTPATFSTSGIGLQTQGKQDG
# Sequence of Dual specificity protein kinase CLK3 (P49761 whole entry): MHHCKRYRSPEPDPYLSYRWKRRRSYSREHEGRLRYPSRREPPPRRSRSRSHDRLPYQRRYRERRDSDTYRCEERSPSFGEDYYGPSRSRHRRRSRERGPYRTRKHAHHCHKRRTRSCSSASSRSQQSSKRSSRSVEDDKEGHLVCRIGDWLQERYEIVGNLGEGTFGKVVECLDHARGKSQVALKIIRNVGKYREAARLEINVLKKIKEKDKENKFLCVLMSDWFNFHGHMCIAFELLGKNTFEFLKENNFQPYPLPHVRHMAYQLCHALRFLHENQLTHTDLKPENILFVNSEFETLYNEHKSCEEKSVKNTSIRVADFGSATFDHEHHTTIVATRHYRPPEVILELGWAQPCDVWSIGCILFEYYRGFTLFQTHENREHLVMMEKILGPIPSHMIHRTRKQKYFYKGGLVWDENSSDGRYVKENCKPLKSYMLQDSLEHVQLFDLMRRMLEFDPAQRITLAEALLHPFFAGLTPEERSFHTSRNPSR
# Sequence of Serine/threonine-protein kinase N3 (Q6P5Z2 whole entry): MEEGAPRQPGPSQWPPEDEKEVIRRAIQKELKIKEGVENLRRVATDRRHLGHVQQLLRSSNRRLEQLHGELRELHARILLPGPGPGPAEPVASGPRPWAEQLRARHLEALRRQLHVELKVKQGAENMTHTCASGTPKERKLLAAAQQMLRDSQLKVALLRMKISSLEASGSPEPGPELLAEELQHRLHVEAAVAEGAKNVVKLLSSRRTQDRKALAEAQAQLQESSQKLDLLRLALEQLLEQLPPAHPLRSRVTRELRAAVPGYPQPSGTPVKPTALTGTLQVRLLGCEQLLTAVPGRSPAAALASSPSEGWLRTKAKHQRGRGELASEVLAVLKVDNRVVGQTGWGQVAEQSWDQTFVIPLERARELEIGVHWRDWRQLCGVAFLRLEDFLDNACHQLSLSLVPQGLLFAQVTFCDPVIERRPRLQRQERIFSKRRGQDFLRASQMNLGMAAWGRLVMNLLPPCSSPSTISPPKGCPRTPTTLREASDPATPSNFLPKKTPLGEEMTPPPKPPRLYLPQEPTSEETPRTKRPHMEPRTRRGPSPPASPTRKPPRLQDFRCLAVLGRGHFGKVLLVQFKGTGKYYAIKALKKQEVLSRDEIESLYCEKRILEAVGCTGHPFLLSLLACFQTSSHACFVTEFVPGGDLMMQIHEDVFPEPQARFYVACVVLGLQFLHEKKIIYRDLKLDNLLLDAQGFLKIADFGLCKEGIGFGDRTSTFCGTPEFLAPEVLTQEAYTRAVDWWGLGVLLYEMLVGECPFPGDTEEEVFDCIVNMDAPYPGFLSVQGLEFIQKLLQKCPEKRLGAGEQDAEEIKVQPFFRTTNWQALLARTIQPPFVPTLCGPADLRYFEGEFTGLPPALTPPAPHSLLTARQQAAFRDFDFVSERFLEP
# Sequence of Choline-phosphate cytidylyltransferase A (P49585 whole entry): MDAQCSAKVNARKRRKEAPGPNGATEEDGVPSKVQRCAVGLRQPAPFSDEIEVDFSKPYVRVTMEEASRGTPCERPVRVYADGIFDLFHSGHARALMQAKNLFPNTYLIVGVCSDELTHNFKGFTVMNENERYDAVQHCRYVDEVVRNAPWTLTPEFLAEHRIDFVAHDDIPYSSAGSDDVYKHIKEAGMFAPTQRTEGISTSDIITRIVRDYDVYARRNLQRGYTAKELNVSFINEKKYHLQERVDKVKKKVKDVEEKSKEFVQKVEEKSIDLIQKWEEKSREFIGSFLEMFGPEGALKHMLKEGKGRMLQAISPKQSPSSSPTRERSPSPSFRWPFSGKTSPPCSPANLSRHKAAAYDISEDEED
# Sequence of Serine/threonine-protein kinase PLK1 (P53350 whole entry, the tested form may be a part): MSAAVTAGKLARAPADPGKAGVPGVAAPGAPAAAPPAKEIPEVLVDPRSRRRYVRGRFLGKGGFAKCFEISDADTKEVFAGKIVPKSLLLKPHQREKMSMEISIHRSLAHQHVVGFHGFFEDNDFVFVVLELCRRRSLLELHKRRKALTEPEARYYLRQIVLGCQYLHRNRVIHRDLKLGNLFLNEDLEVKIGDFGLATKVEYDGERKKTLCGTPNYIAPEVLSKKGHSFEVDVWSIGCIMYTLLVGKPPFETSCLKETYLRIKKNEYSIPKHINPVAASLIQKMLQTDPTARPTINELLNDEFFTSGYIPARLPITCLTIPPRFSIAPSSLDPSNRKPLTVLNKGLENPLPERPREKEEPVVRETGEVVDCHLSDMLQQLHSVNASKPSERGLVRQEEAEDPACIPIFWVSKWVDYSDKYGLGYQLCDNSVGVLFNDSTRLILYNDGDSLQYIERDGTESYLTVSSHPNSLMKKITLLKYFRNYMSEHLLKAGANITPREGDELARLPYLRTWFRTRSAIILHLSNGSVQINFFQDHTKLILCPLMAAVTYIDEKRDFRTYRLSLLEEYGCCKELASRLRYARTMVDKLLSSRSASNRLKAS
Kd [1],Kd [2],Kd [3],Kd [4],Kd [5],Kd [6],Kd [7],Kd [8],Kd [9],SMILES
> 30 µM (inactive),> 30 µM (inactive),> 30 µM (inactive),,,> 30 µM (inactive),,,> 30 µM (inactive),CCn1cc(-c2ccnc3[nH]c(-c4cccc(CN(C)C)c4)cc23)c(-c2ccc(NC(=O)N(C)C)cc2)n1 [GSK-1070916]
,,,> 30 µM (inactive),,,,,,CN(C[C@@H]1COCCO1)S(=O)(=O)Nc1ccc2ccc3ncc(-c4cnn(C)c4)cc3c(=O)c2c1 [MK-2461]
,> 30 µM (inactive),,> 30 µM (inactive),> 30 µM (inactive),> 30 µM (inactive),> 30 µM (inactive),> 30 µM (inactive),> 30 µM (inactive),Cn1cc(-c2cnc3ccc4ccc(CS(=O)(=O)NCc5ccccn5)cc4c(=O)c3c2)cn1 [MK-8033]
,> 30 µM (inactive),,,> 30 µM (inactive),> 30 µM (inactive),> 30 µM (inactive),,> 30 µM (inactive),NC(=O)c1c(OCc2c(F)cc(Br)cc2F)nsc1NC(=O)NCCCCN1CCCC1 [OSI-632]
> 30 µM (inactive),> 30 µM (inactive),,> 30 µM (inactive),> 30 µM (inactive),> 30 µM (inactive),> 30 µM (inactive),> 30 µM (inactive),> 30 µM (inactive),Cc1nc(Nc2n[nH]c3c2CN(C(=O)N[C@H](CN(C)C)c2ccccc2)C3(C)C)c2sccc2n1 [PF-03758309]
> 30 µM (inactive),,> 30 µM (inactive),,,> 30 µM (inactive),> 30 µM (inactive),,,CC(=O)NCC(=O)N1[C@@H]2CC[C@H]1c1ccc(Nc3ncc(C(F)(F)F)c(NC4CCC4)n3)cc12 [PF-03814735]
,,,,,> 30 µM (inactive),> 30 µM (inactive),,,Cn1cc(-c2cnn3c(N)c(Br)c([C@@H]4CCCNC4)nc23)cn1 [SCH-900776]
> 30 µM (inactive),,,,,,> 30 µM (inactive),,,CCS(=O)(=O)c1cccc(-c2cc(C(=O)NC3CCN(C)CC3)c(C)c3[nH]c4ncc(C)cc4c23)c1 [TAK-901]

# Continued, compound first:
SMILES,Kd [1],Kd [2],Kd [3],Kd [4],Kd [5],Kd [6],Kd [7],Kd [8],Kd [9]
C[C@H]1CNCCCN1S(=O)(=O)c1cccc2cncc(F)c12,> 30 µM (inactive),,,,,,,,
CC(=O)c1cnc2ccc(-c3cc(Cl)c(O)c(Cl)c3)nc2c1N[C@H]1CC[C@H](CN(C)C)CC1,,> 30 µM (inactive),> 30 µM (inactive),> 30 µM (inactive),,,,,
CCNC(=O)C#Cc1ccc2c(c1)NC(=O)/C2=C(\Nc1ccc(CN(C)C)cc1)c1ccccc1,,,,,> 30 µM (inactive),> 30 µM (inactive),> 30 µM (inactive),,
COCc1c(-c2ccc(NC(=O)Nc3cc(C(F)(F)F)ccc3F)c(F)c2)c2c(N)ncnn2c1CN1CCOCC1,,> 30 µM (inactive),,> 30 µM (inactive),> 30 µM (inactive),,> 30 µM (inactive),> 30 µM (inactive),
COc1cc(Nc2ncc3c(n2)-c2ccc(Cl)cc2C(c2c(F)cccc2OC)=NC3)ccc1C(=O)O [ALISERTIB],> 30 µM (inactive),> 30 µM (inactive),,,,,> 30 µM (inactive),,> 30 µM (inactive)
Cc1nc(NC(=O)N2CCC[C@H]2C(N)=O)sc1-c1ccnc(C(C)(C)C(F)(F)F)c1 [ALPELISIB],,,,> 30 µM (inactive),> 30 µM (inactive),,,,
CNC(=O)c1ccccc1Sc1ccc2c(/C=C/c3ccccn3)n[nH]c2c1 [AXITINIB],,> 30 µM (inactive),> 30 µM (inactive),,,,> 30 µM (inactive),,
COc1cc([C@@H]2c3cc4c(cc3[C@H](O)[C@H]3COC(=O)[C@@H]23)OCO4)cc(OC)c1OC [AXL-1717],,,,> 30 µM (inactive),,,> 30 µM (inactive),,
NC(=O)Nc1cc(-c2cccc(F)c2)sc1C(=O)N[C@H]1CCCNC1 [AZD-7762],> 30 µM (inactive),,,,,> 30 µM (inactive),> 30 µM (inactive),,> 30 µM (inactive)
COc1c(OCCCN2CCOCC2)ccc2c1N=C(NC(=O)c1cnc(N)nc1)N1CCN=C21 [COPANLISIB],,> 30 µM (inactive),,,> 30 µM (inactive),> 30 µM (inactive),> 30 µM (inactive),> 30 µM (inactive),> 30 µM (inactive)
Cc1nc2cc(-n3ncc(C(=O)c4cc5ccccc5[nH]4)c3N)ccc2[nH]1 [FGFR INHIBITOR DEBIO 1347],> 30 µM (inactive),,,> 30 µM (inactive),,,> 30 µM (inactive),,
Cc1cccc(-c2nn3c(c2-c2ccnc4ccc(C(N)=O)cc24)CCC3)n1 [GALUNISERTIB],> 30 µM (inactive),,,> 30 µM (inactive),> 30 µM (inactive),,> 30 µM (inactive),> 30 µM (inactive),
O=C(Nc1cc(C(F)(F)F)cc(C(F)(F)F)c1)c1cc(Cl)ccc1O [IMD-0354],,,> 30 µM (inactive),,> 30 µM (inactive),> 30 µM (inactive),,,> 30 µM (inactive)
FC(F)(F)c1ccc(/C=C/c2nc(COc3ccc(CCCCn4ccnn4)cc3)co2)cc1 [MUBRITINIB],> 30 µM (inactive),,,,> 30 µM (inactive),,,> 30 µM (inactive),> 30 µM (inactive)
CCCCCCCCCCCCCCCCCCOP(=O)([O-])OC1CC[N+](C)(C)CC1 [PERIFOSINE],,,> 30 µM (inactive),> 30 µM (inactive),,,> 30 µM (inactive),,
CO[C@H]1C[C@@H]2CC[C@@H](C)[C@@](O)(O2)C(=O)C(=O)N2CCCC[C@H]2C(=O)O[C@H]([C@H](C)C[C@@H]2CC[C@@H](OP(C)(C)=O)[C@H](OC)C2)CC(=O)[C@H](C)/C=C(\C)[C@@H](O)[C@@H](OC)C(=O)[C@H](C)C[C@H](C)/C=C/C=C/C=C/1C [RIDAFOROLIMUS],> 30 µM (inactive),> 30 µM (inactive),,,,> 30 µM (inactive),> 30 µM (inactive),,> 30 µM (inactive)
N#CC1(c2ccc(NC(=O)c3cccnc3NCc3ccncc3)cc2)CCCC1 [RIVOCERANIB],> 30 µM (inactive),,,> 30 µM (inactive),> 30 µM (inactive),> 30 µM (inactive),> 30 µM (inactive),,> 30 µM (inactive)
N#CC[C@H](C1CCCC1)n1cc(-c2ncnc3[nH]ccc23)cn1 [RUXOLITINIB],,,,> 30 µM (inactive),,,,,
O=c1[nH]ccc2cc(OC3CCNCC3)ccc12 [SAR-407899 FREE BASE],> 30 µM (inactive),,,> 30 µM (inactive),> 30 µM (inactive),,> 30 µM (inactive),> 30 µM (inactive),> 30 µM (inactive)
CN1CCN(CCOc2cc(OC3CCOCC3)c3c(Nc4c(Cl)ccc5c4OCO5)ncnc3c2)CC1 [SARACATINIB],,> 30 µM (inactive),,,> 30 µM (inactive),> 30 µM (inactive),> 30 µM (inactive),> 30 µM (inactive),
C[C@@H](NC(=O)c1ncnc(N)c1Cl)c1ncc(C(=O)Nc2cc(C(F)(F)F)c(Cl)cn2)s1 [TOVORAFENIB],> 30 µM (inactive),> 30 µM (inactive),> 30 µM (inactive),,> 30 µM (inactive),> 30 µM (inactive),,,> 30 µM (inactive)
CN1C/C=C/CCOc2cccc(c2)-c2ccnc(n2)Nc2cccc(c2)C1 [ZOTIRACICLIB],,,,> 30 µM (inactive),> 30 µM (inactive),,> 30 µM (inactive),,

# — ChEMBL document CHEMBL3991601, “The target landscape of clinical kinase drugs” (Science, 2017)
